Reference: ChEMBL document CHEMBL4765323, “Design, synthesis, and biological evaluation of novel miconazole analogues containing selenium as potent antifungal agents” (Eur J Med Chem, 2020)
Values after ≈ are worked out from the molar mass of the structure shown.

Key:
Candida albicans [1] = assay: Antifungal activity against Candida albicans CPCC400616 measured after 24 hrs by micro-broth dilution assay; format: functional
Candida albicans [2] = assay: Antifungal activity against Candida albicans ATCC SC5314 measured after 24 hrs by micro-broth dilution assay; format: functional
[Candida] zeylanoides = Antifungal activity against Candida zeylanoides CMGCC2.3739 measured after 24 hrs by micro-broth dilution assay; format: functional; details: Dujonia zeylanoides
Cryptococcus neoformans = assay: Antifungal activity against Cryptococcus neoformans CGMCC2.3161 measured after 72 hrs by micro-broth dilution assay; format: functional
Pichia kudriavzevii = assay: Antifungal activity against Candida krusei AS 2.1045 measured after 24 hrs by micro-broth dilution assay; format: functional
Nakaseomyces glabratus = assay: Antifungal activity against clinical isolate Candida glabrata measured after 24 hrs by micro-broth dilution assay; format: functional
Candida parapsilosis = assay: Antifungal activity against Candida parapsilosis ATCC 22019 measured after 24 hrs by micro-broth dilution assay; format: functional; details: Lodderomyces parapsilosis
Aspergillus fumigatus = assay: Antifungal activity against Aspergillus fumigatus CGMCC 3.7795 measured after 72 hrs by micro-broth dilution assay; format: functional
Candida albicans [3] = assay: Antifungal activity against fluconazole-resistant Candida albicans CaR measured after 24 hrs by micro-broth dilution assay; format: functional
Candida albicans [4] = assay: Antifungal activity against fluconazole-resistant Candida albicans 17 measured after 24 hrs by micro-broth dilution assay; format: functional
Candida albicans [5] = assay: Antifungal activity against fluconazole-resistant Candida albicans 632 measured after 24 hrs by micro-broth dilution assay; format: functional
Candida albicans [6] = assay: Antifungal activity against Candida albicans 901 measured after 24 hrs by micro-broth dilution assay; format: functional
Candida albicans [7] = assay: Antifungal activity against fluconazole-resistant Candida albicans strain 904 measured after 24 hrs by micro-broth dilution assay; format: functional
Candida albicans [8] = assay: Fungicidal activity against Candida albicans CPCC400616 measured after 48 hrs; format: functional
[9] = Ratio of MFC for fungicidal activity against Candida albicans CPCC400616 to MIC for Antifungal activity against Candida albicans CPCC400616; format: functional; details: time 24 hrs
Candida albicans [10] = assay: Antibiofilm activity against FCZ-Resistant Candida albicans CPCC400616 assessed as sessile minimum inhibitory concentration of biofilm formation at 50% after 1.5 hrs by XTT assay; format: functional
Candida albicans [11] = assay: Antibiofilm activity against FCZ-Resistant Candida albicans CPCC400616 assessed as sessile minimum inhibitory concentration of biofilm formation at 50% after 3 hrs by XTT assay; format: functional
Candida albicans [12] = assay: Antibiofilm activity against FCZ-Resistant Candida albicans CPCC400616 assessed as sessile minimum inhibitory concentration of biofilm formation at 50% after 6 hrs by XTT assay; format: functional
Candida albicans [13] = assay: Antibiofilm activity against FCZ-Resistant Candida albicans CPCC400616 assessed as sessile minimum inhibitory concentration of biofilm formation at 50% after 24 hrs by XTT assay; format: functional
Erythrocyte = assay: Hemolytic activity in rabbit RBC assessed as hemolysis ratio at 1 ug/ml measured after 3 hrs relative to control; format: ADME, cell-based, Oryctolagus cuniculus; details: dose 1 µg/ml
Candida albicans [14] = assay: Antibiofilm activity against FCZ-Resistant Candida albicans CPCC400616 assessed as sessile minimum inhibitory concentration of biofilm formation at 80% after 1.5 hrs by XTT assay; format: functional
Candida albicans [15] = assay: Antibiofilm activity against FCZ-Resistant Candida albicans CPCC400616 assessed as sessile minimum inhibitory concentration of biofilm formation at 80% after 3 hrs by XTT assay; format: functional
Candida albicans [16] = assay: Antibiofilm activity against FCZ-Resistant Candida albicans CPCC400616 assessed as sessile minimum inhibitory concentration of biofilm formation at 80% after 6 hrs by XTT assay; format: functional
Candida albicans [17] = assay: Antibiofilm activity against FCZ-Resistant Candida albicans CPCC400616 assessed as sessile minimum inhibitory concentration of biofilm formation at 80% after 24 hrs by XTT assay; format: functional
[18] = Ratio of hemolysis activity in rabbit RBC to MIC for Candida albicans; format: toxicity; details: rabbit red blood cells (RBC)
Candida albicans [19] = assay: Inhibition of CYP51 in azole-resistant Candida albicans ATCC […] assessed as ergosterol level at 0.03125 ug/ml incubated for 16 hrs by LC-MS analysis relative to control; parameters: scale not given: the % may be the effect or the level left; details: dose 0.03125 µg/ml
Candida albicans [20] = assay: Inhibition of CYP51 in azole-resistant Candida albicans ATCC […] assessed as ergosterol level at 0.125 ug/ml incubated for 16 hrs by LC-MS analysis relative to control; parameters: scale not given: the % may be the effect or the level left; details: dose 0.125 µg/ml
Candida albicans [21] = assay: Inhibition of CYP51 in azole-resistant Candida albicans ATCC […] assessed as ergosterol level at 0.5 ug/ml incubated for 16 hrs by LC-MS analysis relative to control; parameters: scale not given: the % may be the effect or the level left; details: dose 0.5 µg/ml
Candida albicans [22] = assay: Inhibition of CYP51 in azole-resistant Candida albicans ATCC […] assessed as ergosterol level at 2 ug/ml incubated for 16 hrs by LC-MS analysis relative to control; parameters: scale not given: the % may be the effect or the level left; details: dose 2.0 µg/ml
Candida albicans [23] = assay: Inhibition of CYP51 in azole-resistant Candida albicans ATCC […] assessed as Obtusifoliol level at 0.03125 ug/ml incubated for 16 hrs by LC-MS analysis relative to control; parameters: scale not given: the % may be the effect or the level left; details: dose 0.03125 µg/ml
Candida albicans [24] = assay: Inhibition of CYP51 in azole-resistant Candida albicans ATCC […] assessed as Obtusifoliol level at 0.125 ug/ml incubated for 16 hrs by LC-MS analysis relative to control; parameters: scale not given: the % may be the effect or the level left; details: dose 0.125 µg/ml
Candida albicans [25] = assay: Inhibition of CYP51 in azole-resistant Candida albicans ATCC […] assessed as Obtusifoliol level at 0.5 ug/ml incubated for 16 hrs by LC-MS analysis relative to control; parameters: scale not given: the % may be the effect or the level left; details: dose 0.5 µg/ml
Candida albicans [26] = assay: Inhibition of CYP51 in azole-resistant Candida albicans ATCC […] assessed as Obtusifoliol level at 2 ug/ml incubated for 16 hrs by LC-MS analysis relative to control; parameters: scale not given: the % may be the effect or the level left; details: dose 2.0 µg/ml
Candida albicans [27] = assay: Inhibition of CYP51 in azole-resistant Candida albicans ATCC […] assessed as Obtusifoliol level at 8 ug/ml incubated for 16 hrs by LC-MS analysis relative to control; parameters: scale not given: the % may be the effect or the level left; details: dose 8.0 µg/ml
Candida albicans [28] = assay: Inhibition of CYP51 in azole-resistant Candida albicans ATCC […] assessed as Lanosterol level at 0.03125 ug/ml incubated for 16 hrs by LC-MS analysis relative to control; parameters: scale not given: the % may be the effect or the level left; details: dose 0.03125 µg/ml
Candida albicans [29] = assay: Inhibition of CYP51 in azole-resistant Candida albicans ATCC […] assessed as Lanosterol level at 0.125 ug/ml incubated for 16 hrs by LC-MS analysis relative to control; parameters: scale not given: the % may be the effect or the level left; details: dose 0.125 µg/ml
Candida albicans [30] = assay: Inhibition of CYP51 in azole-resistant Candida albicans ATCC […] assessed as Lanosterol level at 0.5 ug/ml incubated for 16 hrs by LC-MS analysis relative to control; parameters: scale not given: the % may be the effect or the level left; details: dose 0.5 µg/ml
Candida albicans [31] = assay: Inhibition of CYP51 in azole-resistant Candida albicans ATCC […] assessed as Lanosterol level at 2 ug/ml incubated for 16 hrs by LC-MS analysis relative to control; parameters: scale not given: the % may be the effect or the level left; details: dose 2.0 µg/ml
Candida albicans [32] = assay: Inhibition of CYP51 in azole-resistant Candida albicans ATCC […] assessed as Lanosterol level at 8 ug/ml incubated for 16 hrs by LC-MS analysis relative to control; parameters: scale not given: the % may be the effect or the level left; details: dose 8.0 µg/ml
Candida albicans [33] = assay: Inhibition of CYP51 in azole-resistant Candida albicans ATCC […] assessed as Eburicol level at 0.03125 ug/ml incubated for 16 hrs by LC-MS analysis relative to control; parameters: scale not given: the % may be the effect or the level left; details: dose 0.03125 µg/ml
Candida albicans [34] = assay: Inhibition of CYP51 in azole-resistant Candida albicans ATCC […] assessed as Eburicol level at 0.125 ug/ml incubated for 16 hrs by LC-MS analysis relative to control; parameters: scale not given: the % may be the effect or the level left; details: dose 0.125 µg/ml
Candida albicans [35] = assay: Inhibition of CYP51 in azole-resistant Candida albicans ATCC […] assessed as Eburicol level at 0.5 ug/ml incubated for 16 hrs by LC-MS analysis relative to control; parameters: scale not given: the % may be the effect or the level left; details: dose 0.5 µg/ml
Candida albicans [36] = assay: Inhibition of CYP51 in azole-resistant Candida albicans ATCC […] assessed as Eburicol level at 2 ug/ml incubated for 16 hrs by LC-MS analysis relative to control; parameters: scale not given: the % may be the effect or the level left; details: dose 2.0 µg/ml
Candida albicans [37] = assay: Inhibition of CYP51 in azole-resistant Candida albicans ATCC […] assessed as Eburicol level at 8 ug/ml incubated for 16 hrs by LC-MS analysis relative to control; parameters: scale not given: the % may be the effect or the level left; details: dose 8.0 µg/ml
Candida albicans [38] = assay: Inhibition of CYP51 in azole-resistant Candida albicans ATCC […] assessed as inhibition of ergosterol biosynthesis by measuring ergosterol content at 8 ug/ml incubated for 16 hrs by LC-MS analysis relative to control; parameters: scale not given: the % may be the effect or the level left; details: dose 8.0 µg/ml

## Fc1ccc(Br)c(C[Se]C(Cn2ccnc2)c2ccc(Cl)cc2Cl)c1 (stereo not drawn)
Candida albicans [1]
  MIC: 0.02 µg/mL (≈ 0.0394 µM)
Candida albicans [2]
  MIC: 0.01 µg/mL (≈ 0.0197 µM)
[Candida] zeylanoides
  MIC: 0.5 µg/mL (≈ 0.986 µM)
Cryptococcus neoformans
  MIC: 0.25 µg/mL (≈ 0.493 µM)
Pichia kudriavzevii
  MIC: 0.13 µg/mL (≈ 0.256 µM)
Nakaseomyces glabratus
  MIC: 0.5 µg/mL (≈ 0.986 µM)
Candida parapsilosis
  MIC: 0.02 µg/mL (≈ 0.0394 µM)
Aspergillus fumigatus
  MIC: 0.5 µg/mL (≈ 0.986 µM)
Candida albicans [3]
  MIC: 0.13 µg/mL (≈ 0.256 µM)
Candida albicans [4]
  MIC: 0.03 µg/mL (≈ 0.0592 µM)
Candida albicans [5]
  MIC: 0.13 µg/mL (≈ 0.256 µM)
Candida albicans [6]
  MIC: 0.25 µg/mL (≈ 0.493 µM)
Candida albicans [7]
  MIC: 0.13 µg/mL (≈ 0.256 µM)
Candida albicans [8]
  MIC: 0.0625 µg/mL (≈ 0.123 µM)
[9]
  MFC/MIC ratio: 4
Candida albicans [10]
  Activity: 1 µg/mL
Candida albicans [11]
  Activity: 8 µg/mL
Candida albicans [12]
  Activity: 8 µg/mL
Candida albicans [13]
  Activity: 128 µg/mL
Erythrocyte
  Activity: 0.49 µg/mL
Candida albicans [14]
  Activity: 8 µg/mL
Candida albicans [15]
  Activity: 64 µg/mL
Candida albicans [16]
  Activity: >128 µg/mL
Candida albicans [17]
  Activity: >128 µg/mL
[18]
  selectivity ratio: 256

## OC(Cn1cncn1)(Cn1cncn1)c1ccc(F)cc1F [FLUCONAZOLE]
Candida albicans [1]
  MIC: 4 µg/mL (≈ 13.1 µM)
Candida albicans [2]
  MIC: 1 µg/mL (≈ 3.27 µM)
[Candida] zeylanoides
  MIC: 4 µg/mL (≈ 13.1 µM)
Cryptococcus neoformans
  MIC: 4 µg/mL (≈ 13.1 µM)
Pichia kudriavzevii
  MIC: 32 µg/mL (≈ 104 µM)
Nakaseomyces glabratus
  MIC: 32 µg/mL (≈ 104 µM)
Candida parapsilosis
  MIC: 4 µg/mL (≈ 13.1 µM)
Aspergillus fumigatus
  MIC: > 128 µg/mL
Candida albicans [3]
  MIC: > 128 µg/mL
Candida albicans [4]
  MIC: 128 µg/mL (≈ 418 µM)
Candida albicans [5]
  MIC: > 128 µg/mL
Candida albicans [6]
  MIC: > 128 µg/mL
Candida albicans [7]
  MIC: > 128 µg/mL
Candida albicans [19]
  Activity: 12.2%
Candida albicans [20]
  Activity: 8.3%
Candida albicans [21]
  Activity: 7.1%
Candida albicans [22]
  Activity: 5.2%
Candida albicans [23]
  Activity: 1.6%
Candida albicans [24]
  Activity: 11.4%
Candida albicans [25]
  Activity: 9%
Candida albicans [26]
  Activity: 17.7%
Candida albicans [27]
  Activity: 9.2%
Candida albicans [28]
  Activity: 9.8%
Candida albicans [29]
  Activity: 7.2%
Candida albicans [30]
  Activity: 9.5%
Candida albicans [31]
  Activity: 7.4%
Candida albicans [32]
  Activity: 9.4%
Candida albicans [33]
  Activity: 2.9%
Candida albicans [34]
  Activity: 6.7%
Candida albicans [35]
  Activity: 70.6%
Candida albicans [36]
  Activity: 75.2%
Candida albicans [37]
  Activity: 70.6%
Candida albicans [38]
  Activity: 74.8%
